{
  "source": "patent US7666843B2",
  "about": "“Methods and compositions for treatment of neurological disorder” (Children's Medical Center Corporation, priority 2002, dated 2010)",
  "assay_type_in_all_cases": "cell-based",
  "key": {"[1]": {"tested_on": "goldfish retinal ganglion cells", "experiment": "Goldfish retinal ganglion cell culture, cell survival", "details": "MH 10 mM, sugars at low micromolar concentrations", "protocol": "(§1) Goldfish retinal ganglion cell cultures. Mammalian AF-1 was initially characterized in bioassays using dissociated goldfish retinal ganglion cells (RGCs). In brief, Comet variety goldfish (Mt. Parnell Fisheries, PA) were dark-adapted, cooled to 4° C., and killed by cervical transection. Retinas were dissected and dissociated by incubation in papain followed by a series of trituration steps that result in an RGC-enriched cell suspension (Schwartz & Agronoff,; Schwalb et al., 1995). Approximately 500 RGCs per well were plated together with the experimental samples to be tested in defined, serum-free media containing Leibovitz' L15 media (Gibco BRL) plus N1 and N2 supplements (Bottenstein, Saito), antioxidants, and bovine serum albumin as described in detail elsewhere (Schwalb et al., 1995). In each experiment, 4 wells of each sample were distributed in 24-well plates in a blinded fashion so that the person evaluating axon outgrowth was unaware of the type of sample present in each well. Experiments included a positive control (previously validated goldfish AF-1 or inosine) and a negative control (defined media alone), likewise distributed on the plate in quadruplicate in a blinded fashion. After 6 days in culture at 21° C., axon outgrowth, operationally defined as the percent of RGCs that extended an axon≧5 cell diameters in length, was evaluated in approximately 150 consecutively encountered RGCs per well. Data were analyzed by averaging axon growth in the 4 wells for each sample, subtracting the level of growth found in negative controls (typically 3-5%), and normalizing by the net growth in positive controls (usually 20-40%). Data are presented as normalized means ± SEM. All experiments were repeated at least 3 times."}, "[2]": {"tested_on": "goldfish retinal ganglion cells", "experiment": "Goldfish retinal ganglion cell culture, axon outgrowth bioassay", "details": "goldfish RGCs; for effect on axon growth induced by AF-1: 6-TG 20 μM, NBTI 20 μM, H89 5 μM, FIG. 2, 4; for effect on axon growth induced by AF-1 / axon growth induced by cAMP-elevating agent on its own: Sp-cAMPs 150 μM; for axon growth induced by cAMP-elevating agent on its own: FIG. 4; for axon outgrowth in response to monosaccharides: sugar alone, 50 or 100 μM, D-configuration, FIG. 7a", "protocol": "Goldfish retinal ganglion cells are prepared as described in PCT application serial no. PCT/US98/03001, the contents of which are incorporated herein by reference, and contacted with a hexose derivative such as mannose. The ability of the hexose derivative to stimulate axonal outgrowth from the goldfish retinal ganglion cells is monitored as described in PCT application serial no. PCT/US98/03001.\nas §1, with “Data were analyzed by averaging axon growth in the 4 wells for each sample, subtracting the level of growth found in negative controls (typically 3-5%), and normalizing by the net growth in positive controls (usually 20-40%).” left out"}, "[3]": {"tested_on": "rat retinal ganglion cells", "experiment": "Rat retinal ganglion cell culture, axon outgrowth", "details": "rat RGCs; for axon outgrowth, agent by itself: 3 days, no other factor added, forskolin 5 μM in FIG. 9a; for effect on axon growth induced by the low molecular weight vitreous factor (VE<3): FIG. 3a; for axon outgrowth in the presence of forskolin: compared to forskolin alone, glucose up to 5 mM, mannose-6-phosphate up to 10 mM, 9c", "from_the_text": "(§2) Rat retinal ganglion cell cultures. Retinal ganglion cells were identified by retrograde labeling with Fluorogold (FG: Fluorochrome, Inc.). […] After allowing 7 days for FG to be retrogradely transported up the optic nerve, rats were killed, eyes were removed, and the retinas dissected. Retinas were dissociated with papain treatment followed by trituration. Mixed cultures containing 100-150 FG-labeled RGCs per well were maintained in 24 well plates in a defined, serum-free media (Minimal Essential Media containing NaHCO3,) at 37° C. at 5% CO2 for 3 days."}, "[4]": {"tested_on": "rat retinal ganglion cells", "experiment": "Rat retinal ganglion cell culture, cell survival", "from_the_text": "as §2"}},
  "note": "“Also recorded” adds a separate entry of the source. Read-outs that look alike come from different tables or passages of the source.",
  "data": [
    {"smiles": "O=C(CO)[C@@H](O)[C@@H](O)[C@H](O)[C@H](O)CO", "note": "[MH, mannoheptulose]", "values": [
      {"measurement": "cell survival (viable RGCs per field)", "setting": "[1]", "value": "detrimental to cell survival; also recorded: decreases cell survival"},
      {"measurement": "effect on mannose-induced axon outgrowth", "setting": "[2]; KT5720 1 μM, MH 10 mM, dBcAMP, late fraction with 50 μM mannose", "value": "had no effect on outgrowth induced by glucose or mannose; also recorded: has no effect on outgrowth induced by glucose or mannose"},
      {"measurement": "effect on glucose-induced axon outgrowth", "setting": "[2]; glucose 10 μM (50 μM with late fraction), dBcAMP 1 mM, forskolin 10 μM, Rp-cAMPs 100 μM, 3-O-MG 100:1, 2-DG 1 mM, MH 10 mM", "value": "had no effect on outgrowth induced by glucose or mannose; also recorded: has no effect on outgrowth induced by glucose or mannose"}
    ]},
    {"smiles": "Nc1ncnc2c1ncn2[C@@H]1O[C@@H]2COP(O)(=S)O[C@H]2[C@H]1O", "note": "(stereo partly shown) [Sp-cAMPs]", "values": [
      {"measurement": "axon outgrowth, agent by itself", "setting": "[3]", "value": "little effect on outgrowth"},
      {"measurement": "effect on axon growth induced by the low molecular weight vitreous factor (VE<3)", "setting": "[3]", "value": "greatly potentiated"},
      {"measurement": "effect on axon growth induced by the low molecular weight vitreous factor (VE<3)", "setting": "[3]; listed as Sp-cAMP-s", "value": "strongly potentiates"},
      {"measurement": "effect on axon growth induced by AF-1", "setting": "[2]; forskolin 10 μM, Rp-cAMPs 100 μM", "value": "non-statistically significant decrease in outgrowth"},
      {"measurement": "effect on axon growth induced by AF-1", "setting": "[2]; forskolin 10 μM, Rp-cAMPs 100 μM, listed as Sp-cAMP-s", "value": "not enhanced; also recorded: reduced the level of outgrowth"},
      {"measurement": "axon growth induced by cAMP-elevating agent on its own", "setting": "[2]; forskolin 10 μM", "value": "Neither forskolin (10 μM) nor Sp-cAMPs (150 μM) induced growth on its own"},
      {"measurement": "axon growth induced by cAMP-elevating agent on its own", "setting": "[2]; forskolin 10 μM, listed as Sp-cAMP-s", "value": "Neither forskolin nor Sp-cAMP-s by itself stimulated axon growth"}
    ]},
    {"smiles": "O=C[C@H](O)[C@@H](O)[C@H](O)[C@H](O)CO", "note": "[glucose, D-glucose]", "values": [
      {"measurement": "axon outgrowth in the presence of forskolin", "setting": "[3]; with forskolin, FIG. 9a", "value": "failed to induce growth above the level of forskolin alone; also recorded: no effect whatsoever"},
      {"measurement": "axon outgrowth in the presence of forskolin", "setting": "[3]; with forskolin, FIG. 9a, listed as Glucose", "value": "inactive"},
      {"measurement": "effect of added glucose on mannose-induced growth", "setting": "[3]; with forskolin, high concentrations of glucose, FIG. 9a", "value": "not augmented further; also recorded: not altered"},
      {"measurement": "cell survival (viable RGCs per field)", "setting": "[1]", "value": "no effect on cell survival; also recorded: not related to any changes in cell survival"},
      {"measurement": "axon outgrowth in response to monosaccharides", "setting": "[2]", "value": "stimulated as much outgrowth as the low molecular weight factor; also recorded: induced axon growth"},
      {"measurement": "level of axon growth relative to that seen with the vitreous extract", "setting": "[2]; sugar by itself, FIG. 7d", "value": "about 70%"}
    ]},
    {"smiles": "O=C[C@@H](O)[C@@H](O)[C@H](O)[C@H](O)CO", "note": "[mannose, D-mannose]", "values": [
      {"measurement": "axon outgrowth, agent by itself", "setting": "[3]", "value": "marginally significant response"},
      {"measurement": "axon outgrowth, agent by itself", "setting": "[3]; listed as D-mannose", "value": "little effect"},
      {"measurement": "axon outgrowth, agent by itself", "setting": "[3]; listed as Mannose", "value": "small, marginally significant level of outgrowth"},
      {"measurement": "increase of axon outgrowth over baseline", "setting": "[3]; in the presence of forskolin", "value": 3, "unit": "fold"},
      {"measurement": "EC50", "setting": "[3]; in the presence of forskolin, data not shown, read-out: ED50 of axon outgrowth", "value": "~10", "unit": "µM"},
      {"measurement": "axon outgrowth in the presence of forskolin", "setting": "[3]; with forskolin, FIG. 9a", "value": "more than doubled the level axon growth induced by forskolin alone; also recorded: striking increase in outgrowth; also recorded: respond strongly"},
      {"measurement": "cell survival (viable RGCs per field)", "setting": "[4]", "value": "not related to cell survival; also recorded: independent of any changes in cell survival"},
      {"measurement": "cell survival (viable RGCs per field)", "setting": "[4]; listed as D-mannose", "value": "unrelated to changes in cell survival"},
      {"measurement": "cell survival (viable RGCs per field)", "setting": "[1]", "value": "no effect on cell survival; also recorded: not related to any changes in cell survival"},
      {"measurement": "EC50", "setting": "[2]; Carassius auratus, FIG. 7c, read-out: ED50 of axon outgrowth", "value": "~10", "unit": "µM"},
      {"measurement": "concentration at which the effect on axon outgrowth saturates", "setting": "[2]; FIG. 7c", "value": "25 to 50", "unit": "µM"},
      {"measurement": "axon outgrowth in response to monosaccharides", "setting": "[2]", "value": "stimulated as much outgrowth as the low molecular weight factor; also recorded: induced axon growth"}
    ]}
  ]
}
